Test system: human iCell neurons
Experiment: Amyloid beta 42 ELISA on supernatant, neuronal model
Settings: treated 2 days, 3 concentrations, FIG. 2
Experimental: For a neuronal model, human iCell neurons (Cellular Dynamics International) were plated in 96-well plates and were grown to neuronal maturity by culturing for 2 weeks.
In each model, cells were then treated with DHA (UFA), arginine and citrulline (NORC's) at 3 different concentrations (see table 1 in FIG. 1) for 2 days. The supernatant was used to perform Amyloid beta 42 (A131-42) ELISA Kit, Human (KHB3441, Thermo Fisher Scientific).

SMILES	release of Aβ1-42
CC/C=C\C/C=C\C/C=C\C/C=C\C/C=C\C/C=C\CCC(=O)O [DHA, docosahexaenoic acid]	no effect
NC(=O)NCCC[C@H](N)C(=O)O [citrulline]	no effect

Reference: patent US11951137B2, “Compositions comprising unsaturated fatty acids and nitric oxide releasing compounds and use thereof for enhancing cognitive and related functions” (SOCIETE DES PRODUITS NESTLE S.A., priority 2008, dated 2024)
